According to PubChem BioAssay (NCI):
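Each compound was tested at five concentrations against cells in 96-well plates for 48 hours. TGI denotes the concentration required for complete inhibition of growth.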

How the values were obtained:
Assay in all cases: DTP human tumour cell line panel, 48 h
M14 melanoma = system: M14 melanoma
MALME-3M melanoma = system: MALME-3M melanoma
LOX IMVI melanoma = system: LOX IMVI melanoma
RPMI-8226 leukemia = system: RPMI-8226 leukemia
HOP-62 NSCLC = system: HOP-62 NSCLC
NCI-H23 lung = system: NCI-H23 lung
SK-MEL-2 melanoma = system: SK-MEL-2 melanoma
MOLT-4 leukemia = system: MOLT-4 leukemia
OVCAR-8 ovarian = system: OVCAR-8 ovarian
MCF7 breast = system: MCF7 breast

SMILES | TGI (M14 melanoma) | TGI (MALME-3M melanoma) | TGI (LOX IMVI melanoma) | TGI (RPMI-8226 leukemia) | TGI (HOP-62 NSCLC) | TGI (NCI-H23 lung) | TGI (SK-MEL-2 melanoma) | TGI (MOLT-4 leukemia) | TGI (OVCAR-8 ovarian) | TGI (MCF7 breast)
CN1NC(c2ccccc2)=C(C#N)C(=O)CC1c1ccc(Br)cc1 (configuration not stated) | 45.8 µM | > 100 µM | > 100 µM | > 100 µM | 61 µM | > 100 µM | 70 µM | – | – | –
O=C(O)c1ccc(Nc2nc3nn(Cc4ccccc4)cc3c(=O)s2)cc1 | > 100 µM | > 100 µM | > 100 µM | > 100 µM | > 100 µM | > 100 µM | > 100 µM | > 100 µM | > 100 µM | –
COC(=O)[C@H](Cc1c[nH]c2ccccc12)NC(=O)c1ccccc1I | 32.4 µM | 35.8 µM | 44.8 µM | – | > 100 µM | – | 45.8 µM | 56.9 µM | > 100 µM | > 100 µM
COCOc1cc(OC)ccc1C/C(=N/O)C(=O)OC | > 100 µM | > 100 µM | > 100 µM | – | > 100 µM | > 100 µM | > 100 µM | > 100 µM | > 100 µM | > 100 µM
NC(N)=N/N=C/c1c(-c2cc([N+](=O)[O-])c(Cl)cc2Cl)nc2n1CCS2 | > 100 µM | 57.9 µM | > 100 µM | > 100 µM | > 100 µM | 48.3 µM | 9.45 µM | 58.6 µM | > 100 µM | –
NCCNC(=O)CN(CC(=O)O)C1CCCCC1N(CC(=O)O)CC(=O)O (configuration not stated) | > 100 µM | > 100 µM | > 100 µM | – | > 100 µM | > 100 µM | > 100 µM | > 100 µM | > 100 µM | > 100 µM
O/N=C\C(=Nc1ccc(Cc2ccc(N=C(/C=N\O)NO)cc2)cc1)NO | > 100 µM | > 100 µM | > 100 µM | > 100 µM | > 100 µM | > 100 µM | > 100 µM | > 100 µM | > 100 µM | –
CCOC(=O)/C=C(/C(=O)OCC)n1ccc(=O)n(Cc2cnnn2CCCCOC(C)=O)c1=O | – | – | > 100 µM | > 100 µM | > 100 µM | > 100 µM | > 100 µM | > 100 µM | > 100 µM | > 100 µM
C/C(O)=C(\C=NC(=S)c1ccncc1)C(=O)Nc1ccccc1C | > 100 µM | – | > 100 µM | – | > 100 µM | > 100 µM | > 100 µM | – | > 100 µM | > 100 µM
COc1ccc(CCN2C(=O)CC34C=CC(CC3C2=O)O4)cc1OC (configuration not stated) | > 100 µM | – | > 100 µM | > 100 µM | > 100 µM | > 100 µM | > 100 µM | > 100 µM | > 100 µM | > 100 µM
C/C(O[Si](C(C)C)(C(C)C)C(C)C)=C(\C)C(=O)N(C)c1ccccc1Cl | > 100 µM | > 100 µM | > 100 µM | > 100 µM | > 100 µM | > 100 µM | – | > 100 µM | > 100 µM | –
O=C(c1ccco1)N(C(=S)N1CCN(c2ccccn2)CC1)c1ccccc1 | > 100 µM | > 100 µM | > 100 µM | > 100 µM | > 100 µM | > 100 µM | > 100 µM | > 100 µM | > 100 µM | –
Cc1nc(Nc2ccc(Cl)c(Cl)c2)sc1C(=O)/C=C/c1ccc2c(c1)OCO2 | – | > 100 µM | 35.3 µM | 45.9 µM | 36.5 µM | 49.5 µM | – | 44.1 µM | 49.6 µM | > 100 µM
O=C(NC1(C(=O)O)CCCC1)c1ccccc1 | > 100 µM | – | > 100 µM | > 100 µM | > 100 µM | > 100 µM | > 100 µM | > 100 µM | > 100 µM | > 100 µM
CC(=O)NC1(C)C(C)C2CC1C(C)C2(C)C (configuration not stated) | > 100 µM | > 100 µM | – | – | > 100 µM | > 100 µM | – | > 100 µM | > 100 µM | > 100 µM
COC(=O)CC(C(C(C)=O)C(=O)OCc1ccccc1)N1C(=O)OC(c2ccccc2)C1c1ccccc1 (configuration not stated) | – | > 100 µM | > 100 µM | > 100 µM | > 100 µM | > 100 µM | > 100 µM | > 100 µM | > 100 µM | –
COc1ccc(/C(Cl)=C(\C=O)c2ccc(Cl)cc2)cc1OC | 97.3 µM | > 100 µM | 14.5 µM | 62.9 µM | 42.3 µM | 8.36 µM | 57.2 µM | 6.62 µM | 28.6 µM | –
